In brackets after ≈: the same amount, converted by molar mass.

The conditions of this data set: buffer; pH 7.4; 200.0 µM.
`O=C(CCc1ccccc1)NC1C2CC3CC(C2)CC1C3` (centres undefined): the solubility (kinetic) (usually the concentration staying in solution when a stock, usually in DMSO, is diluted into the medium) came to 34.6 µg/mL (≈ 122 µM).
Turning to `CC1CN(C(=O)c2ccc(NS(=O)(=O)c3ccc(C(C)(C)C)cc3)cc2)CC(C)O1` (centres undefined), the kinetic solubility came out at 48 µg/mL (≈ 111 µM). This solubility kinetic and that of the molecule before are within 1.5-fold of each other.
In the case of `CC(=O)Nc1ccc(NC(=O)C2CC(=O)N(C(C)C)C2)cc1` (centres undefined) it was 43.4 µg/mL (≈ 143 µM).
In the case of `CCOC(=O)c1c(O)c(O)c(C(=O)OCC)n1-c1ccccc1` it was above 47.9 µg/mL; in that of `Cn1c(=O)n(C)c2cc(NS(=O)(=O)c3ccccc3)ccc21`, 35.5 µg/mL (≈ 112 µM).
The molecule `CN(C)S(=O)(=O)c1cc(NC(=O)COC(=O)c2nc(Cl)ccc2Cl)ccc1Cl` displayed a solubility (kinetic) of 52.7 µg/mL (≈ 113 µM).
In the case of `S=C(NCCCN1CCOCC1)Nc1cccc(Cl)c1` it was above 47.1 µg/mL; in that of `COc1cccc(C(=O)NCCCNC(=O)c2ccco2)c1`, 40.8 µg/mL (≈ 135 µM).
Molecule `CCn1cc([N+](=O)[O-])c(=O)c2cc(F)c(N3CCOCC3)cc21` displayed a solubility (kinetic) of 13.5 µg/mL (≈ 42 µM).
In the case of `Cc1ccc(NC(=S)NCCC2=CCCCC2)cc1` it was 0.6 µg/mL (≈ 2.19 µM).
In the case of `CC(C)CN1C(=O)C(=Nc2cccnc2)c2ccccc21` it was above 41.9 µg/mL; in that of `O=C(/C=C/c1ccccc1[N+](=O)[O-])N1CCc2ccccc2C1`, 20.3 µg/mL (≈ 65.8 µM); in that of `O=C(NC(=O)c1ccccc1O)c1ccc(C(F)(F)F)cc1`, 2.3 µg/mL (≈ 7.44 µM).
In the case of `CC1CCCC(C)N1C(=S)SCC(=O)O` (centres undefined) it was above 37.1 µg/mL; in that of `CN(Cc1ccccc1)C(=O)COC(=O)c1ccc(Br)c(S(=O)(=O)N2CCOCC2)c1`, 36.7 µg/mL (≈ 71.8 µM).
For the molecule `COc1ccccc1N1C(=O)CC(N(O)c2ccccc2)C1=O` (centres undefined), the solubility (kinetic) is above 46.8 µg/mL.
In the case of `NC(=S)Nc1ccc(F)c(F)c1F` it was above 30.9 µg/mL; in that of `O=C(c1cc2ccccc2oc1=O)N1CCCCCCC1`, 42.5 µg/mL (≈ 149 µM); in that of `COc1ccc(C=O)cc1Cn1ccnc1.Cl`, above 37.9 µg/mL.
In the case of `Cc1ccc(C(=O)N(CN2CCCC2=O)c2ccccc2)cc1` it was above 46.3 µg/mL; in that of `Fc1cccc(Cc2noc(CN3CCSCC3)n2)c1`, above 44 µg/mL.
In the case of `CCC(Oc1ccccc1)C(=O)Nc1ncc([N+](=O)[O-])s1` (centres undefined) it was above 46.1 µg/mL; in that of `CCOC(=O)Cc1cc(C)[nH]c1C(=O)OCC`, 34.7 µg/mL (≈ 145 µM); in that of `COc1ccc(Nc2nc3c(C)cccn3c(=O)c2C=O)cc1`, below 0.2 µg/mL.
As to `O=C(O)c1ccccc1N1C(=O)c2cccc3cccc(c23)C1=O`, the solubility (kinetic) is above 47.6 µg/mL.
In the case of `O=C(NC(=S)Nc1ccccc1)C1CCCCC1` it was 0.6 µg/mL (≈ 2.29 µM).
In the case of `O=C1C(=O)N(CCCc2ccccc2)c2ccccc21` it was 32.5 µg/mL (≈ 122 µM); in that of `Cc1ccc(-c2cc(C(=O)N3CCOCC3)c3ccccc3n2)o1`, above 48.4 µg/mL.
In the case of `CCN(c1cccc(C)c1)S(=O)(=O)c1csc(C(N)=O)c1` it was above 48.7 µg/mL; in that of `CC(=O)Nc1ccc(-c2nc3cc(Cl)ccc3o2)cc1`, below 0.3 µg/mL.
`Cc1cc(C(F)(F)F)nc(SCC(=O)NC2CCCCC2)n1`: the kinetic solubility was 33.2 µg/mL (≈ 99.6 µM).
In the case of `COc1ccc(OCC(O)CNC(=O)Nc2ccc(C(C)(C)C)cc2)cc1` (centres undefined) it was below 0.4 µg/mL.
In the case of `c1cc(OCCCN2CCCCC2)ccc1CN1CCCCC1` it was 44.7 µg/mL (≈ 141 µM); in that of `Cc1ccc2[nH]c(=O)c(CN(C(=O)c3cccc([N+](=O)[O-])c3)C(C)(C)C)cc2c1`, 2.9 µg/mL (≈ 7.37 µM).
In the case of `O=C(CN1CCN(c2ccc(O)cc2)CC1)N1CCc2ccccc21` it was 5 µg/mL (≈ 14.8 µM); in that of `O=C(C1CC1)N1CCN(c2ccc([N+](=O)[O-])cc2-n2cccc2)CC1`, 6.3 µg/mL (≈ 18.5 µM).
Take `Cc1nn(CCCC(=O)Nc2cccnc2)c(C)c1[N+](=O)[O-]`: the kinetic solubility was above 45.5 µg/mL.
The molecule `COc1ccc(C(=O)OCC(=O)Nc2ccccc2)cc1[N+](=O)[O-]` returned a kinetic solubility of 3 µg/mL (≈ 9.08 µM).
In the case of `O=[N+]([O-])c1cc(F)c(N2CCCCC2)cc1Br` it was 0.3 µg/mL (≈ 0.99 µM); in that of `CC(Sc1nccn1C)C(=O)NC1(C#N)CCCCC1` (centres undefined), above 43.9 µg/mL.
In the case of `O=S(=O)(c1ccc2c(c1)CCCN2)N1CCCC1` it was above 40 µg/mL.
Turning to `Cc1nc(NCc2cccnc2)c2c3c(sc2n1)CC(C)CC3` (centres undefined), the kinetic solubility worked out at 2.5 µg/mL (≈ 7.71 µM).
The molecule `COC(=O)c1c(C)oc(C)c1S(=O)(=O)N1CCCC1` came in with a kinetic solubility of 38.3 µg/mL (≈ 133 µM).
The molecule `Fc1ccccc1CNC(=S)NC1CCCCC1` registered a kinetic solubility above 40 µg/mL.
In the case of `O=C(Nc1nccs1)C(c1ccccc1)N1CCCC1` (centres undefined) it was above 43.1 µg/mL; in that of `CCOC(=O)c1cnc(COc2ccccc2Cl)[nH]c1=O`, above 46.3 µg/mL; in that of `COc1cccc(NC(=O)C2CC(=O)N(Cc3ccc(C)cc3)C2)c1` (centres undefined), 9.3 µg/mL (≈ 27.5 µM).
Turning to `O=C(/C=C/c1cccc([N+](=O)[O-])c1)N1CCN(c2ccccn2)CC1`, the solubility (kinetic) worked out at 3.1 µg/mL (≈ 9.16 µM).
In the case of `CCn1ccc(C(=O)N2CCN(c3ncccn3)CC2)n1` it was above 43 µg/mL; in that of `CCN(CC)S(=O)(=O)c1ccc(N)cc1`, above 34.2 µg/mL; in that of `O=[N+]([O-])c1ccc(CN2CCN(c3ccc(Cl)cc3)CC2)o1`, 4.7 µg/mL (≈ 14.6 µM).
In the case of `COC(=O)c1sccc1NC(=S)Nc1cc(C)ccc1OC` it was 36.3 µg/mL (≈ 108 µM); in that of `CCOc1ccc(NC(=S)N2CCCCCC2)cc1`, above 41.8 µg/mL; in that of `CC1CCCN(S(=O)(=O)c2cnc[nH]2)C1` (centres undefined), above 34.4 µg/mL.
In the case of `CC1=CCC(C(=O)O)C(C(=O)NC2CCCCC2)C1` (centres undefined) it was above 39.8 µg/mL; in that of `COC(=O)Cn1cnc2c(oc3ccccc32)c1=O`, above 38.7 µg/mL; in that of `CCc1ccccc1NC(=O)c1cc(-c2ccc(OC)cc2)on1`, below 0.3 µg/mL.
For `CC(C)(CN1CCCC1)NS(=O)(=O)c1ccccc1.Cl`, the solubility (kinetic) was above 47.8 µg/mL.
In the case of `COc1ccccc1N1CCN(c2nc(C)cc(C)c2C#N)CC1` it was 10.4 µg/mL (≈ 32.3 µM); in that of `CCC(C)[C@H](NC(=O)NCCC1=CCCCC1)C(=O)OC` (some centres undefined), above 44.5 µg/mL; in that of `CN(C)CCNC(=O)C(c1ccccc1)c1ccccc1`, 37.9 µg/mL (≈ 134 µM).
In the case of `NS(=O)(=O)c1ccc(CNC(=O)c2ccc3ccccc3n2)cc1` it was 3.9 µg/mL (≈ 11.4 µM); in that of `O=C(Nc1cccc2ncccc12)c1cccc(Br)c1`, 16.2 µg/mL (≈ 49.5 µM); in that of `Cc1noc(N)c1C1(O)C(=O)Nc2c(Cl)cc(Cl)cc21` (centres undefined), above 47.1 µg/mL.
In the case of `CCCCn1c(=O)c(C(=O)NC(C)c2ccccc2)c(O)c2ccccc21` (centres undefined) it was below 0.4 µg/mL; in that of `CN1CN(c2cccc([N+](=O)[O-])c2)CN=C1N[N+](=O)[O-]`, above 42 µg/mL; in that of `O=C(CNc1ccccc1Cl)c1ccc(Br)cc1`, below 0.7 µg/mL.
Take `O=c1c2ccccc2ncn1-c1ccc(Cl)cc1`: the kinetic solubility was determined as 8.7 µg/mL (≈ 33.9 µM).
In turn, `CCS(=O)(=O)c1nc2ccccc2n1Cc1ccccn1` registered a kinetic solubility above 45.2 µg/mL.
In the case of `Cc1ccccc1NC(=O)COC(=O)C1C2CC3OC(=O)C1C3C2` (centres undefined) it was above 49.4 µg/mL.
In the case of `CCCC1C2C(=O)N(c3cccc(C)c3)C(=O)C2ON1c1ccccc1` (centres undefined) it was 51.1 µg/mL (≈ 146 µM); in that of `COc1ccc(CNC(=S)Nc2ccc(F)c(Cl)c2)cc1`, 1.8 µg/mL (≈ 5.54 µM); in that of `C=CCc1cc(C)ccc1OCCCn1ccnc1.O=C(O)C(=O)O`, 29.1 µg/mL.
Molecule `CC(NS(=O)(=O)c1ccccc1)C1CC2CCC1C2` (centres undefined) gave a kinetic solubility of 6 µg/mL (≈ 21.5 µM). Compared with the last molecule, the solubility kinetic is about 4.9-fold lower.
In the case of `Cc1cc(Nc2cccc(Cl)c2)nc(-c2ccccc2O)n1` it was 0.6 µg/mL (≈ 1.92 µM).
In the case of `CCOc1cc(C(=S)N2CCCC2)ccc1OCc1ccccc1` it was 7.6 µg/mL (≈ 22.3 µM).
In the case of `Cc1cnc(C(=O)OCC(=O)N2C(C)CCCC2C)cn1` (centres undefined) it was above 43.7 µg/mL; in that of `O=C1C2CCCN2C(=O)N1CCCN1CCN(c2ccc([N+](=O)[O-])cc2)CC1` (centres undefined), 49.4 µg/mL (≈ 128 µM); in that of `CN(C)c1cccc(C(=O)NCC(c2ccco2)N(C)C)c1` (centres undefined), above 45.2 µg/mL.
`O=C(O)CC1(CC(=O)Nc2cccc(C(F)(F)F)c2)CCCC1` showed a kinetic solubility above 49.4 µg/mL.
In the case of `COc1cccc(C2=NOC(C(=O)Nc3cc(C)on3)C2)c1OC` (centres undefined) it was 46.5 µg/mL (≈ 140 µM).
As to `O=C(NC(=S)N1CCCCCC1)c1ccccc1Cl`, the solubility (kinetic) is above 44.5 µg/mL.
In the case of `CN(C)CCCNc1nc(-c2ccccc2)nc2ccccc12.Cl` it was 44.1 µg/mL.
In the case of `COC(=O)c1c(C)oc(C)c1S(=O)(=O)NCc1cccs1` it was 43.4 µg/mL (≈ 132 µM); in that of `O=C(COC(=O)c1cccnc1)Nc1cccc2ccccc12`, 42.1 µg/mL (≈ 137 µM).
In the case of `C=C(C)n1c(=O)n(Cc2ccccc2C)c2ccccc21` it was 16 µg/mL (≈ 57.5 µM).
Regarding `CCc1c(C)nc(SCc2cccnc2)[nH]c1=O`, the kinetic solubility is above 39.2 µg/mL.
In the case of `CC1CN(S(=O)(=O)c2ccc(C(=O)Nc3ccccc3F)cc2)CC(C)O1` (centres undefined) it was above 58.9 µg/mL.
In the case of `c1ccc(-c2csc(NC3CCCCC3)n2)cc1` it was 4.1 µg/mL (≈ 15.9 µM); in that of `O=C(COC(=O)c1ccc2ccccc2n1)Nc1ccccc1F`, 8.9 µg/mL (≈ 27.4 µM); in that of `COC(=O)/C=C1/SC(=NC(=O)c2ccc(OC)cc2)NC1=O`, 9.2 µg/mL (≈ 28.7 µM).
In turn, `Cc1cc(=O)[nH]c(SCC(=O)N2CCCC(C)C2)n1` (centres undefined) showed a solubility (kinetic) above 42.2 µg/mL.
`Cc1c(C(=O)N(C)Cc2ccccc2)oc2c(Cl)cccc12` registered a solubility (kinetic) of 8.4 µg/mL (≈ 26.8 µM).
In the case of `Cc1onc(-c2c(F)cccc2Cl)c1C(=O)OCC(=O)N1C(C)CCCC1C` (centres undefined) it was 41.7 µg/mL (≈ 102 µM); in that of `CCCN1CCC(NC(=S)Nc2ccc(OC)c(OC)c2)CC1`, above 50.6 µg/mL.
Molecule `Cc1ccccc1-n1c(C)c(C#N)c(=O)c(-[n+]2ccccc2)c1[S-]` displayed a solubility (kinetic) of 45.5 µg/mL (≈ 136 µM).
In the case of `CN(C)C(CNS(=O)(=O)c1ccc(Cl)cc1F)c1ccco1.Cl` (centres undefined) it was above 57.5 µg/mL; in that of `O=C1NC(=S)NC(=O)C1=Cc1ccc(OCC(=O)N2CCCC2)cc1`, 51.8 µg/mL (≈ 144 µM); in that of `O=C(NCc1cccs1)C1CCCN(C(=O)Nc2ccccc2)C1` (centres undefined), 21.7 µg/mL (≈ 63.2 µM).
With `C=CCC(=O)N1CCCC(C(=O)c2ccc(Cl)cc2)C1` (centres undefined), the solubility (kinetic) turned out to be 42.5 µg/mL (≈ 146 µM).
Molecule `C#CCN1CCN(c2ccc(F)cc2)CC1` yielded a solubility (kinetic) of 30 µg/mL (≈ 137 µM).
`O=C(O)c1nc(NCc2ccccc2)ncc1Cl` showed a kinetic solubility above 39.6 µg/mL.
In the case of `CC(O)CNCc1ccccc1C(F)(F)F.Cl` (centres undefined) it was above 40.5 µg/mL.
In the case of `O=C1c2ccccc2CN1Cc1ccccc1` it was above 33.5 µg/mL.

The values are drawn from PubChem BioAssay AID1996.
